The target of this assay is T1, GPR40 (Homo sapiens, UniProt O14842).
T1 construct: expressed in transfected cells; host or cells: HEK293 cells stably expressing GPR40 (Hygromycin selection)
Description: IP1 accumulation assay in HEK293 cells stably expressing GPR40. It counts as cell-based. Here is the method:
IP1 accumulation assay was used to evaluate the potency of compounds. HEK293 cells stably expressing GPR40 were cultured in 5% CO2 incubator (ThermoFisher) in maintenance media (Dulbecco's modified Eagle's medium with 4.5 g/L of glucose, 10% fetal bovine serum, 100 μg/mL Hygromycin, and Penicillin (100 U/mL)/Streptomycin (100 μg/mL)) till 100% confluency. Cells were harvested freshly, spun down at 300×g for 5 min, and resuspended in pre-warmed 1× stimulant buffer from Cisbio IP-One HTRF Detection kit (Cisbio). Cell density was adjusted to 2.0×10^6 cells/mL. DMSO was used as blank control and AMG-1638 (CAS #: 1142214-62-7) as positive control. Compounds were prepared at 10 mM in DMSO and 5 nL of 3× serially diluted compounds (10 concentrations) were added to each well of the 384-LDV assay plate (Corning) by using ECHO 550 (Labcyte). Five μL of cells in suspension were transferred into each well by using Multidrop Combi Reagent Dispenser (ThermoFisher). Assay plate was then sealed and incubated at 37° C. for 2 hours. IP-d2 reagent and anti-IP1 reagent were prepared following the manual (Cisbio). Five μL of IP1-d2 and then 5 μL of anti-IP1 antibody was added to each well sequentially. Assay plate was incubated at room temperature for 60 min and then read at 665 nm/615 nm on an Envision plate reader (PerkinElmer). The ratio of values obtained at 665 nm and 615 nm was used for calculation of IP1 accumulation: % Effect=(Ratiosample−Ratioblank)/(RatioAMG-1638−Ratioblank)×100. Dose curve was fitted and EC50 of each compound was calculated by using XLFit.

[1] abbreviates: IP1 accumulation, HEK293 cells stably expressing GPR40, 2 hours at 37° C., % effect relative to AMG-1638, table of Biological Example 1.
The mark [2] stands for this setting: Table A-8 (additional examples), obtained by methods of Biological Example 1.
The mark [3] stands for this setting: Tables A-1a to A-7b (structure-property relationship), obtained by methods of Biological Example 1.

The structures appear in SMILES notation. Where only a bound is given, the exact number is not on record here.

T1 sequence (O14842 whole entry): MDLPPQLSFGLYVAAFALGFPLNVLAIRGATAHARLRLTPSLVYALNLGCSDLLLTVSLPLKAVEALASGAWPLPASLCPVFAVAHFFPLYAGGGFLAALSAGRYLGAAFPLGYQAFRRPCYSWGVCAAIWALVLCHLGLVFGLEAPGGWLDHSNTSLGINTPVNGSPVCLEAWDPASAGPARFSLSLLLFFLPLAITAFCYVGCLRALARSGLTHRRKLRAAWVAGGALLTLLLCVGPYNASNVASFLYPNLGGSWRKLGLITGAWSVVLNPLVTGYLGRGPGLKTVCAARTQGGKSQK

`C[C@H](C(=O)O)[C@H](c1ccc2c(c1)O[C@@H](C1CCN(Cc3cc(-n4cc(CCCCCCCCCCCCC(=O)NCCN(CCC(=O)NCCN)CCC(=O)NCCN)nn4)ccc3OC(F)(F)F)CC1)CC2)C1CC1` [Example 1, (2S,3R)-3-((R)-2-(1-(5-(4-(13-((2-(bis(3-((2-aminoethyl)amino)-3-oxopropyl)amino)ethyl)amino)-13-oxotridecyl)-1H-1,2,3-triazol-1-yl)-2-(trifluoromethoxy)benzyl)piperidin-4-yl)chroman-7-yl)-3-cyclopropyl-2-methylpropanoic acid] returned an EC50 under setting [1] of 5.46 nM, an EC50 under setting [2] of 5.46 nM and an EC50 under setting [3] of 5.46 nM.

Consider `C[C@H](C(=O)O)[C@H](c1ccc2c(c1)O[C@@H](C1CCN(Cc3cc(-n4cc(CCCCCCCCCCCCC(=O)NCC[N+](C)(CCC(=O)NCCN)CCC(=O)NCCN)nn4)ccc3OC(F)(F)F)CC1)CC2)C1CC1` [Example 2], for which the EC50 turned out to be 9.46 nM under setting [1], 9.46 nM under setting [2] and 9.46 nM under setting [3]. Regarding `C[C@H](C(=O)O)[C@H](c1ccc2c(c1)O[C@@H](C1CCN(Cc3cc(-n4cc(CCCCCCCCCCCCCCCCCC(=O)NCCN(CCC(=O)NCCN)CCC(=O)NCCN)nn4)ccc3OC(F)(F)F)CC1)CC2)C1CC1` [Example 3], a half-maximal response under setting [1] (EC50) required 1.1 nM and the EC50 under setting [3] was determined as 1.1 nM. `C[C@H](C(=O)O)[C@H](c1ccc2c(c1)O[C@@H](C1CCN(Cc3cc(-n4cc(CCCCCCCCCCCCCCCCCC(=O)NCC[N+](C)(CCC(=O)NCCN)CCC(=O)NCCN)nn4)ccc3OC(F)(F)F)CC1)CC2)C1CC1` [Example 4]: the EC50 is, setting by setting: under setting [1], 0.31 nM; under setting [3], 0.31 nM. Turning to `C[C@H](C(=O)O)[C@H](c1ccc2c(c1)O[C@@H](C1CCN(Cc3cc(-c4cn(CCCCCCCCCCCCCC(=O)NCCN(CCC(=O)NCCN)CCC(=O)NCCN)nn4)ccc3OC(F)(F)F)CC1)CC2)C1CC1` [Example 5], the 50% effective concentration (EC50) reads like this: under setting [1], 15.2 nM; under setting [3], 15.2 nM. For `C[C@H](C(=O)O)[C@H](c1ccc2c(c1)O[C@@H](C1CCN(Cc3cc(-c4cn(CCCCCCCCCCCCCCCCCC(=O)NCCN(CCC(=O)NCCN)CCC(=O)NCCN)nn4)ccc3OC(F)(F)F)CC1)CC2)C1CC1` [Example 6], the EC50 by setting is: under setting [1], 1.21 nM; under setting [3], 1.21 nM. For `C[C@H](C(=O)O)[C@H](c1ccc2c(c1)O[C@@H](C1CCN(Cc3cc(-c4cn(CCCCCCCCCCCCCCCCCC(=O)NCC[N+](C)(CCC(=O)NCCN)CCC(=O)NCCN)nn4)ccc3OC(F)(F)F)CC1)CC2)C1CC1` [Example 7], the EC50 runs as follows: under setting [1], 0.65 nM; under setting [3], 0.65 nM. Under setting [1], `COc1ccc(F)c(-c2ccc(COc3cccc([C@@H](CC(=O)O)C4CC4)c3)cc2C(C)(C)c2cn(CCCCCCCCCCCCCC(=O)NCCN(CCC(=O)NCCN)CCC(=O)NCCN)nn2)c1` [Example 8] came in with an EC50 greater than 1000 nM.

`COc1ccc(F)c(-c2ccc(COc3cccc([C@@H](CC(=O)O)C4CC4)c3)cc2C(C)(C)c2cn(CCCCCCCCCCCCCC(=O)NCC[N+](C)(CCC(=O)NCCN)CCC(=O)NCCN)nn2)c1` [Example 9] had an EC50 under setting [1] of 640 nM.

Compound `COc1ccc(F)c(-c2ccc(COc3cccc([C@@H](CC(=O)O)C4CC4)c3)cc2C(C)(C)c2cn(CCCCCCCCCCCCCCCCCC(=O)NCCN(CCC(=O)NCCN)CCC(=O)NCCN)nn2)c1` [Example 10] gave an EC50 under setting [1] of 32.7 nM. Against the preceding compound, the EC50 is about 20-fold lower. On the same count and under the same terms, the value for `COc1ccc(F)c(-c2ccc(COc3cccc([C@@H](CC(=O)O)C4CC4)c3)cc2C(C)(C)c2cn(CCCCCCCCCCCCCCCCCC(=O)NCC[N+](C)(CCC(=O)NCCN)CCC(=O)NCCN)nn2)c1` [Example 11] was 20.3 nM.

Compound `COc1ccc(F)c(-c2ccc(COc3cccc([C@@H](CC(=O)O)C4CC4)c3)cc2C(OCCCCCn2cc(CCCCCCCCCCCCCCCCCC(=O)NCCN(CCC(=O)NCCN)CCC(=O)NCCN)nn2)C(C)(C)C)c1` (stereo partly shown) [Example 12] showed an EC50 under setting [1] of 1.12 nM. Same read-out and setting: under `COc1ccc(F)c(-c2ccc(COc3cccc([C@@H](CC(=O)O)C4CC4)c3)cc2C(OC)C(C)(C)Cn2cc(CCCCCCCCCCCCCCCCCC(=O)NCCN(CCC(=O)NCCN)CCC(=O)NCCN)nn2)c1` (stereo partly shown) [Example 14] stands 8.8 nM; under `COc1ccc(F)c(-c2ccc(COc3cccc([C@@H](CC(=O)O)C4CC4)c3)cc2C(OC)C(C)(C)Cn2cc(CCCCCCCCCCCCCCCCCC(=O)NCC[N+](C)(CCC(=O)NCCN)CCC(=O)NCCN)nn2)c1` (stereo partly shown) [Example 15], 58.4 nM.

As to `COc1ccc(F)c(-c2ccc(COc3cccc([C@@H](CC(=O)O)C4CC4)c3)cc2CC(C)(C)Cn2cc(CCCCCCCCCCCCC(=O)NCCN(CCC(=O)NCCN)CCC(=O)NCCN)nn2)c1` [Example 16], the EC50 runs as follows: under setting [1], 460 nM; under setting [2], 706 nM; under setting [3], 460 nM.

As to `COc1ccc(F)c(-c2ccc(COc3cccc([C@@H](CC(=O)O)C4CC4)c3)cc2CC(C)(C)Cn2cc(CCCCCCCCCCCCC(=O)NCC[N+](C)(CCC(=O)NCCN)CCC(=O)NCCN)nn2)c1` [Example 17], the EC50 was found to be 152 nM under setting [1], 169 nM under setting [2] and 152 nM under setting [3]. Regarding `COc1ccc(F)c(-c2ccc(COc3cccc([C@@H](CC(=O)O)C4CC4)c3)cc2CC(C)(C)Cn2cc(CCCCCCCCCCCCCCCCCC(=O)NCCN(CCC(=O)NCCN)CCC(=O)NCCN)nn2)c1` [Example 18], the EC50 worked out at 2.25 nM under setting [1] and 2.25 nM under setting [3]. With `COc1ccc(F)c(-c2ccc(COc3cccc([C@@H](CC(=O)O)C4CC4)c3)cc2CC(C)(C)Cn2cc(CCCCCCCCCCCCCCCCCC(=O)NCC[N+](C)(CCC(=O)NCCN)CCC(=O)NCCN)nn2)c1` [Example 19], the EC50 was 1.66 nM under setting [1] and 1.66 nM under setting [3]. As to `COc1ccc(F)c(-c2ccc(COc3cccc([C@@H](CC(=O)O)C4CC4)c3)cc2CC(C)(C)Cc2cn(CCCCCCCCCCCCCC(=O)NCCN(CCC(=O)NCCN)CCC(=O)NCCN)nn2)c1` [Example 21], the concentration for a half-maximal effect (EC50) by setting is: under setting [1], 49.4 nM; under setting [3], 49 nM. As to `COc1ccc(F)c(-c2ccc(COc3cccc([C@@H](CC(=O)O)C4CC4)c3)cc2CC(C)(C)Cc2cn(CCCCCCCCCCCCCC(=O)NCC[N+](C)(CCC(=O)NCCN)CCC(=O)NCCN)nn2)c1` [Example 22], the EC50 reads like this: under setting [1], 49 nM; under setting [3], 49 nM. In turn, `COc1ccc(F)c(-c2ccc(COc3cccc([C@@H](CC(=O)O)C4CC4)c3)cc2CC(C)(C)Cc2cn(CCCCCCCCCCCCCCCCCC(=O)NCCN(CCC(=O)NCCN)CCC(=O)NCCN)nn2)c1` [Example 23] yielded an EC50 under setting [1] of 0.96 nM and an EC50 under setting [3] of 0.96 nM. As to `COc1ccc(F)c(-c2ccc(COc3cccc([C@@H](CC(=O)O)C4CC4)c3)cc2CC(C)(C)Cc2cn(CCCCCCCCCCCCCCCCCC(=O)NCC[N+](C)(CCC(=O)NCCN)CCC(=O)NCCN)nn2)c1` [Example 24], the EC50 under setting [1] was found to be 2.04 nM and the half-maximal effective concentration (EC50) under setting [3] is 2.04 nM.

Compound `COc1ccc(F)c(-c2ccc(COc3cccc([C@@H](CC(=O)O)C4CC4)c3)cc2OC(C)(C)COCc2cn(CCCCCCCCCCCCCC(=O)NCCN(CCC(=O)NCCN)CCC(=O)NCCN)nn2)c1` [Example 25] had an EC50 under setting [1] of 132 nM. For the compound `COc1ccc(F)c(-c2ccc(COc3cccc([C@@H](CC(=O)O)C4CC4)c3)cc2OC(C)(C)COCc2cn(CCCCCCCCCCCCCC(=O)NCC[N+](C)(CCC(=O)NCCN)CCC(=O)NCCN)nn2)c1` [Example 26], the EC50 under setting [1] is 75.8 nM.

On to `COc1ccc(F)c(-c2ccc(COc3cccc([C@@H](CC(=O)O)C4CC4)c3)cc2OC(C)(C)COCc2cn(CCCCCCCCCCCCCCCCCC(=O)NCCN(CCC(=O)NCCN)CCC(=O)NCCN)nn2)c1` [Example 27], for which the EC50 under setting [1] was determined as 5.32 nM. This EC50 lies about 14-fold lower than the previous one.

`COc1ccc(F)c(-c2ccc(COc3cccc([C@@H](CC(=O)O)C4CC4)c3)cc2OC(C)(C)COCc2cn(CCCCCCCCCCCCCCCCCC(=O)NCC[N+](C)(CCC(=O)NCCN)CCC(=O)NCCN)nn2)c1` [Example 28] showed an EC50 under setting [1] of 4.77 nM. On the same count and under the same terms, under `COc1ccc(F)c(-c2ccc(COc3cccc([C@@H](CC(=O)O)C4CC4)c3)cc2OC(C)(C)Cn2cc(CCCCCCCCCCCCC(=O)NCCN(CCC(=O)NCCN)CCC(=O)NCCN)nn2)c1` [Example 29] stands greater than 1000 nM; under `COc1ccc(F)c(-c2ccc(COc3cccc([C@@H](CC(=O)O)C4CC4)c3)cc2OC(C)(C)Cn2cc(CCCCCCCCCCCCC(=O)NCC[N+](C)(CCC(=O)NCCN)CCC(=O)NCCN)nn2)c1` [Example 30], 298 nM; under `COc1ccc(F)c(-c2ccc(COc3cccc([C@@H](CC(=O)O)C4CC4)c3)cc2OC(C)(C)Cn2cc(CCCCCCCCCCCCCCCCCC(=O)NCCN(CCC(=O)NCCN)CCC(=O)NCCN)nn2)c1` [Example 31], 2.28 nM.

Take `COc1ccc(F)c(-c2ccc(COc3cccc([C@@H](CC(=O)O)C4CC4)c3)cc2OC(C)(C)Cn2cc(CCCCCCCCCCCCCCCCCC(=O)NCC[N+](C)(CCC(=O)NCCN)CCC(=O)NCCN)nn2)c1` [Example 32]: the EC50 under setting [1] is 1.98 nM. The EC50 values of the last two compounds are within 1.5-fold of each other.

The record behind these values is patent US20250223281A1, “ANTIDIABETIC COMPOUNDS AND COMPOSITIONS” (REZUBIO PHARMACEUTICALS CO., LTD, priority 2022, published 2025).
